Here are results for 24 compounds from patent publication US12084419B2, “Cell metabolism modulating compounds and uses thereof” (CRESCENTA BIOSCIENCES, priority 2020, dated 2024).

The target of this test is T1, His6 tagged human recombinant FABP4 (Homo sapiens, UniProt P15090).
T1 construct: purchased Cayman Chemicals 10009549
In words: FABP4 TR-FRET assay: displacement of BODIPY FL C12 fatty acid. The conditions noted are these: triplicates, inhibition of BODIPY FL C12 binding; for inhibition at 1 µM: 1 μM compound; for inhibition at 10 µM: 10 μM compound. An excerpt: Activity of compounds with FABP4 was profiled using a Terbium (Tb) based time resolved fluorescence energy transfer (TR-FRET) assay. The assay measures the compound mediated displacement of the fluorescent fatty acid BODIPY FL C12 (Thermo Fisher; catalog number D3822) from His6 tagged human recombinant FABP4 (His6-FABP4; Cayman Chemicals, catalog number 10009549) via recording the energy transfer from TB donor molecule on anti-His6-tag antibody to acceptor BODIPY moiety. Briefly, compounds were prepared at a concentration of 0.362 mM and 0.0362 mM, and BODIPY FL C12 was prepared at 4.2 μM, in DMSO. 1.2 μL of each compound or DMSO (vehicle control) and 1.2 μL of BODIPY FL C12 were added into the wells of a 384-well black polypropylene plate. His6-FABP4 and Tb anti-His6 antibody were prepared in the assay buffer (25 mM Tris/HCl, pH 7.4, 0.4 mg/ml y-globulins, 0.010% NP-40, 1 mM DTT) at a concentration of 83 nM and 49.6 nM, respectively. The protein and antibody solutions were then mixed at a ratio of 34:7 (v/v) and incubated on ice for 30 minutes. The assay was initiated by adding 41 μL of the resulting protein/antibody solution into the wells containing the compounds and BODIPY FL C12. The plate was centrifuged and incubated at room temperature for 10 min. The TR-FRET signals were recorded using an EnVision Multilabel plate reader (PerkinElmer; TB excitation 320 nm, BODIPY FL C12 emission 520 nm; TB emission 615 nm). Relative fluorescence ratio (520 nm*10,000/615 nm) were used to calculate the compound mediated inhibition of BODIPY C12 FL fatty acid binding to FABP4. […] Glucose consumption and FABP4 inhibition is shown below in Table 3 below.
For orientation: Time-resolved FRET reads energy transfer from a long-lived donor to a nearby acceptor.

T1 sequence (P15090 whole entry): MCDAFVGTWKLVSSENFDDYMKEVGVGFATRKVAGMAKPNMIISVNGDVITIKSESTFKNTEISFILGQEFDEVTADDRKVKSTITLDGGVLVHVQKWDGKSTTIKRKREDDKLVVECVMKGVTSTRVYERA

One may read the inhibition as the change of the read-out against control, counted positive when it falls. With `CCCCC1CCCc2c(n(Cc3ccc(C)cc3)c3c(C(=O)O)cccc23)C1` (stereo not shown) [7-butyl-5-[(4-methylphenyl)methyl]-5H,6H,7H,8H,9H,10H-cyclohepta[b]indole-4-carboxylic acid], the inhibition at 1 µM was found to be 106% and the inhibition at 10 µM is 92.4%.
Taken in the same sequence, the figures for `CCCCCCC1CCc2c(n(Cc3cccc(C(=O)O)c3)c3c(C(=O)O)cccc23)C1` (stereo not shown) [9-[(3-carboxyphenyl)methyl]-2-hexyl-2,3,4,9-tetrahydro-1H-carbazole-8-carboxylic acid] were 23.9% and 73%.
For `CCCC1CCc2c1n(Cc1cccc(C(N)=O)c1)c1c(C(=O)O)cccc21` (stereo not shown) [4-[(3-carbamoylphenyl)methyl]-3-propyl-1H,2H,3H,4H-cyclopenta[b]indole-5-carboxylic acid], the inhibition at 1 µM worked out at 89.1% and the inhibition at 10 µM worked out at 95.3%.
For `CCC1CCc2c(c3cccc(C(=O)O)c3n2Cc2cccc(C(N)=O)c2)C1` (stereo not shown) [9-[(3-carbamoylphenyl)methyl]-3-ethyl-2,3,4,9-tetrahydro-1H-carbazole-8-carboxylic acid], in that order: 98.2% and 103%.
Taken in the same sequence, the figures for `CCCCC1CCCc2c(n(Cc3cccc(Cl)c3)c3c(C(=O)O)cccc23)C1` (stereo not shown) [7-butyl-5-[(3-chlorophenyl)methyl]-5H,6H,7H,8H,9H,10H-cyclohepta[b]indole-4-carboxylic acid] were 84.2% and 83%.
As for `N#Cc1cccc(Cn2c3c(c4cccc(C(=O)O)c42)CCC(CCc2ccccc2)C3)c1` (stereo not shown) [9-[(3-cyanophenyl)methyl]-2-(2-phenylethyl)-2,3,4,9-tetrahydro-1H-carbazole-8-carboxylic acid], the inhibition at 10 µM was determined as 92.3%.
On to `CCCCCC1CCc2c(n(Cc3cccc(C#N)c3)c3c(C(=O)O)cccc23)C1` (stereo not shown) [9-[(3-cyanophenyl)methyl]-2-pentyl-2,3,4,9-tetrahydro-1H-carbazole-8-carboxylic acid], for which the inhibition at 1 µM was 60.8% and the inhibition at 10 µM turned out to be 77.1%.
Taken in the same sequence, the figures for `CCCCC1CCCc2c(n(Cc3cccc(C#N)c3)c3c(C(=O)O)cccc23)C1` (stereo not shown) [7-butyl-5-[(3-cyanophenyl)methyl]-5H,6H,7H,8H,9H,10H-cyclohepta[b]indole-4-carboxylic acid] were 73.5% and 112%.
Taken in the same sequence, the figures for `CCCCC1CCCc2c1n(Cc1cccc(C(N)=O)c1)c1c(C(=O)O)cccc21` (stereo not shown) [1-butyl-9-[(3-carbamoylphenyl)methyl]-2,3,4,9-tetrahydro-1H-carbazole-8-carboxylic acid] were 83% and 86.2%.
On to `CCCCCCC1CCCc2c(n(Cc3cccc(OC)c3)c3c(C(=O)O)cccc23)C1` (stereo not shown) [7-hexyl-5-[(3-methoxyphenyl)methyl]-5H,6H,7H,8H,9H,10H-cyclohepta[b]indole-4-carboxylic acid], for which the inhibition at 10 µM was 93.6%.
With `CCC1CCCc2c(n(Cc3cccc(C#N)c3)c3c(C(=O)O)cccc23)C1` (stereo not shown) [5-[(3-cyanophenyl)methyl]-7-ethyl-5H,6H,7H,8H,9H,10H-cyclohepta[b]indole-4-carboxylic acid], the inhibition at 1 µM amounted to 90% and the inhibition at 10 µM worked out at 97%.
As for `CCCCC1CCCc2c(n(Cc3cccc(C#N)c3)c3c(C(=O)NCCO)cccc23)C1` (stereo not shown) [7-butyl-5-[(3-cyanophenyl)methyl]-N-(2-hydroxyethyl)-5H,6H,7H,8H,9H,10H-cyclohepta[b]indole-4-carboxamide], the inhibition at 1 µM was 6.65% and the inhibition at 10 µM was 42.7%.
For `CCC1CCCCc2c1c1cccc(C(=O)O)c1n2Cc1cccc(C#N)c1` (stereo not shown) [5-[(3-cyanophenyl)methyl]-10-ethyl-5H,6H,7H,8H,9H,10H-cyclohepta[b]indole-4-carboxylic acid], in that order: 92.4% and 98.2%.
For `CCCC1CCc2c1n(Cc1cccc(C#N)c1)c1c(C(=O)O)cccc21` (stereo not shown) [4-[(3-cyanophenyl)methyl]-3-propyl-1H,2H,3H,4H-cyclopenta[b]indole-5-carboxylic acid], in that order: 67.8% and 97.6%.
For `CCCCCCC1CCc2c(n(Cc3ccccc3F)c3c(C(=O)O)cccc23)C1` (stereo not shown) [9-[(2-fluorophenyl)methyl]-2-hexyl-2,3,4,9-tetrahydro-1H-carbazole-8-carboxylic acid], in that order: 81.8% and 84.9%.
For the compound `CCCCCCC1CCc2c(n(Cc3cccc(C#N)c3)c3c(C(=O)O)cccc23)C1` (stereo not shown) [9-[(3-cyanophenyl)methyl]-2-hexyl-2,3,4,9-tetrahydro-1H-carbazole-8-carboxylic acid], the inhibition at 1 µM was found to be 63.6% and the inhibition at 10 µM was determined as 83.4%.
Regarding `CCCCC1CCCc2c(n(Cc3cccc(C(=O)O)c3)c3c(C(=O)O)cccc23)C1` (stereo not shown) [7-butyl-5-[(3-carboxyphenyl)methyl]-5H,6H,7H,8H,9H,10H-cyclohepta[b]indole-4-carboxylic acid], the inhibition at 1 µM turned out to be 91.8% and the inhibition at 10 µM came out at 100%.
Taken in the same sequence, the figures for `NC(=O)c1cccc(Cn2c3c(c4cccc(C(=O)O)c42)CCC(CCc2ccccc2)C3)c1` (stereo not shown) [9-[(3-carbamoylphenyl)methyl]-2-(2-phenylethyl)-2,3,4,9-tetrahydro-1H-carbazole-8-carboxylic acid] were 98.4% and 94.1%.
With `CCCCCCC1CCCc2c(n(Cc3cccnc3)c3c(C(=O)O)cccc23)C1` (stereo not shown) [7-hexyl-5-[(pyridin-3-yl)methyl]-5H,6H,7H,8H,9H,10H-cyclohepta[b]indole-4-carboxylic acid], the inhibition at 1 µM turned out to be 105% and the inhibition at 10 µM was found to be 97.3%.
Taken in the same sequence, the figures for `CCCCC1CCCc2c(n(Cc3ccccc3C#N)c3c(C(=O)O)cccc23)C1` (stereo not shown) [7-butyl-5-[(2-cyanophenyl)methyl]-5H,6H,7H,8H,9H,10H-cyclohepta[b]indole-4-carboxylic acid] were 91.5% and 87.3%.
For `CCCCCCC1CCc2c(n(Cc3cccc(C(N)=O)c3)c3c(C(=O)O)cccc23)C1` (stereo not shown) [9-[(3-carbamoylphenyl)methyl]-2-hexyl-2,3,4,9-tetrahydro-1H-carbazole-8-carboxylic acid], in that order: 92.8% and 90.5%.
Taken in the same sequence, the figures for `N#Cc1cccc(Cn2c3c(c4cccc(C(=O)O)c42)C(CCc2ccccc2)CCC3)c1` (stereo not shown) [9-[(3-cyanophenyl)methyl]-4-(2-phenylethyl)-2,3,4,9-tetrahydro-1H-carbazole-8-carboxylic acid] were 31% and 53.4%.
For the compound `CCCCCCC1CCCc2c(n(Cc3ccc(C#N)o3)c3c(C(=O)O)cccc23)C1` (stereo not shown) [5-[(5-cyanofuran-2-yl)methyl]-7-hexyl-5H,6H,7H,8H,9H,10H-cyclohepta[b]indole-4-carboxylic acid], the inhibition at 1 µM was determined as 81.3% and the inhibition at 10 µM came out at 90%.
Taken in the same sequence, the figures for `CCCCC1CCCCc2c1c1cccc(C(=O)O)c1n2Cc1cccc(C(N)=O)c1` (stereo not shown) [10-butyl-5-[(3-carbamoylphenyl)methyl]-5H,6H,7H,8H,9H,10H-cyclohepta[b]indole-4-carboxylic acid] were 63.3% and 87.9%.
